Results on 16 compounds are retold here after US12115157B2, “3-phenoxyazetidin-1-yl-heteroaryl pyrrolidine derivatives and the use thereof as medicament” (Boehringer Ingelheim International GmbH, priority 2021, dated 2024).

For one series, the target named is human GPR52 (Homo sapiens (Human), UniProt Q9Y2T5). Kind of series: HTRF assay for direct cAMP measurement. The format is cell-based. The conditions noted are these: CHO-K1 cells stably expressing recombinant human GPR52, mean EC50. The method, then: HTRF cAMP assays were performed using commercially available assay kits according to the manufacturer's instructions (cAMP Dynamic 2 Assay Kit; #62AM4PEJ, Cisbio Bioassays, Bedford, MA). An aliquot of CHO-K1 cells stably expressing recombinant human GPR52 was thawed and resuspended in cell buffer (1×PBS (w/o Ca^2+/Mg^2+)) at a density of 4×10^5 cells per mL. Test compounds were solubilized in DMSO to 10 mM stock solutions and serially diluted in DMSO using 6-fold dilutions to generate 8-point dose response curves. These serially diluted samples were then diluted 1:50 in compound dilution buffer (1×PBS (w/o Ca^2+/Mg^2+) containing 0.5 mM IBMX, 0.1% BSA) to achieve a 4× stock. The diluted compounds were transferred (5 μL per well) in duplicate to the 384-well assay plate (Optiplate #6007290, PerkinElmer, Waltham, MA). Both a positive (reference compound) and negative (non-stimulated vehicle) control was included in each assay run in column 23. The cell suspension was subsequently dispensed into the 384-well assay plates at 15 μL per well (6000 cells) such that the compound was diluted to 1×. […] After a one-hour incubation at room temperature, 10 μL of cAMP D2 reagent followed by 10 μL of cryptate reagent (provided in the Cisbio kit) was added to each well. Plates were then incubated at room temperature for one hour prior to reading. Time-resolved fluorescence measurements were collected on an EnVision® HTRF plate reader (PerkinElmer, Waltham, MA). Counts from the plate reader were fit to the cAMP standard curve included on each plate to determine the amount of cAMP in each test well. The % control was calculated based on the […]. Dose-response curves were generated from the cAMP data and analyzed using a nonlinear least squares curve-fitting program to obtain EC50 values.
For orientation: Time-resolved FRET reads energy transfer from a long-lived donor to a nearby acceptor.

The next series deals with hERG channel (Homo sapiens (Human), UniProt Q12809). Put plainly: hERG channel assay (whole-cell patch clamp). As to conditions: HEK293 cells stably transfected with hERG cDNA. The series is classed as cell-based. An excerpt: hERG Channel inhibition of compounds of the present invention was investigated as follows:
HEK (human embryonic kidney) 293 cells were stably transfected with hERG cDNA. Cells determined for use in patch clamp experiments were cultivated without antibiotic.
Cells were superfused with a bath solution containing (mM): NaCl (137), KCl (4.0), MgCl2 (1.0), CaCl2(1.8), Glucose (10), HEPES (10), pH 7.4 with NaOH. Patch pipettes were made from borosilicate glass tubing using a pipette and filled with pipette solution containing (mM): K-aspartate (130), MgCl2(5.0), EGTA (5.0), K2ATP (4.0), HEPES (10.0), pH 7.2 with KOH. Resistance of the microelectrodes was typically in the range between 2 MΩ and 5 MΩ.
Membrane currents were recorded using an EPC-10 patch clamp amplifier (HEKA Electronics, Lambrecht, FRG) and PatchMaster software (HEKA). hERG-mediated membrane currents were recorded at typically 28° C., using the whole-cell configuration of the patch-clamp technique. Transfected HEK293 cells were clamped at a holding potential of −60 mV and hERG-mediated inactivating tail currents were elicited using a pulse pattern with fixed amplitudes (activation/inactivation: 40 mV for 2000 ms; recovery: 120 mV for 2 ms; ramp to 40 mV in 2 ms; inactivating tail current: 40 mV for 50 ms) repeated at 15 s intervals. During each inter-pulse interval 4 pulses scaled down by a factor of 0.2 were recorded for a P/n leak subtraction procedure. Rs compensation was employed up to a level that safely allows recording devoid of ringing. The remaining uncompensated Rs was recorded as well as actual temperature and holding current.
The concentrations of the test item were applied sequentially on each of the different cells investigated. A steady state level of baseline current was measured for at least 5 sweeps prior to the application of the first test article concentration. The test item was dissolved in DMSO to yield a stock solution of 1000-fold the highest final concentration. This stock was diluted further in DMSO to stock solutions of 1000-fold the remaining final concentrations. Final dilutions in extracellular buffer were prepared freshly from these stocks by a 1:1000 dilution step each before starting the experiments.
Peak current amplitudes were measured 3 ms after the ramp to +40 mV. For baseline and each concentration, the peak currents of the three last sweeps before application of the next concentration were averaged. Residual currents (I/I0) were calculated for each cell as the fraction of actual average peak current and average baseline peak current. Current inhibition was expressed as […]. Current inhibition for all cells was reported as mean ±SD. If possible, from mean current inhibition data the IC50 was estimated based on the Hill equation using a least squares procedure.
(In general: Block of hERG is tested as a sign of cardiac risk.)

Another series has as its system human plasma proteins. Put plainly: Human plasma protein binding assay (equilibrium dialysis). The format is in vitro ADME. As to conditions: 1 μM, 2 hours, 37° C. Here is the method: Equilibrium dialysis (ED) technique was used to determine the approximate in vitro fractional binding of test compounds to plasma proteins. Dianorm Teflon dialysis cells (micro 0.2) were used. Each dialysis cell consists of a donor and an acceptor chamber, separated by an ultrathin semipermeable membrane with a 5 kDa molecular weight cut-off. Stock solutions for each test compound were prepared in DMSO at 1 mM and serially diluted to obtain a final test concentration of 1 μM. The subsequent dialysis solutions were prepared in plasma (supplemented with NaEDTA as anticoagulant), and aliquots of 200 μL test compound dialysis solution in plasma were dispensed into the donor (plasma) chambers. Aliquots of 200 μL dialysis buffer (100 mM potassium phosphate, pH 7.4) were dispensed into the buffer (acceptor) chamber. Incubation was carried out for 2 hours under rotation at 37° C. for establishing equilibrium.
At the end of the dialysis period, aliquots obtained from donor and acceptor chambers, respectively, were transferred into reaction tubes, spiked with Internal Standard solution and processed for HPLC-MS/MS analysis. Analyte concentrations were quantified in aliquots of samples by HPLC-MS/MS against external calibration curves.
Percent bound was calculated using the formula: % bound=(plasma concentration−buffer concentration/plasma concentration)×100
For orientation: In equilibrium dialysis free small molecules cross a membrane that holds back macromolecules.

In the next series the test system is human hepatocytes. Kind of series: Metabolic stability in human hepatocytes. The series is classed as in vitro ADME. The conditions noted are these: human hepatocyte suspension, 1 μM; predicted hepatic clearance as percentage of hepatic blood flow. Here is the method: The metabolic degradation of a test compound was assayed in a human hepatocyte suspension. After recovery from cryopreservation, human hepatocytes were diluted in Dulbecco's modified eagle medium (supplemented with 3.5 μg glucagon/500 mL, 2.5 mg insulin/500 mL, 3.75 mg hydrocortisone/500 mL, 5% human serum) to obtain a final cell density of 1.0×10^6 cells/mL or 4.0×10^6 cells/mL, depending on the metabolic turnover rate of the test compound.
Following a 30 minutes preincubation in a cell culture incubator (37° C., 10% CO2), test compound solution was spiked into the hepatocyte suspension, resulting in a final test compound concentration of 1 μM and a final DMSO concentration of 0.05% (v/v).
The cell suspension was incubated at 37° C. (cell culture incubator, horizontal shaker) and samples were removed from the incubation after 0, 0.5, 1, 2, 4 and 6 hours. Samples were quenched with acetonitrile (containing internal standard) and pelleted by centrifugation. The supernatant was transferred to a 96-deepwell plate, and prepared for analysis of decline of parent compound by HPLC-MS/MS.
The percentage of remaining test compound was calculated using the peak area ratio (test compound/internal standard) of each incubation time point relative to the time point 0 peak area ratio. The log-transformed data were plotted versus incubation time, and the absolute value of the slope obtained by linear regression analysis was used to estimate in vitro half-life (T1/2).
In vitro intrinsic clearance (CLint) was calculated from in vitro T1/2 and scaled to whole liver using a hepatocellularity of 120×10^6 cells/g liver, a human liver per body weight of 25.7 g liver/kg as well as in vitro incubation parameters, applying the following equation: CL_[…]_IN VIVO[mL/min/kg]=(CL_[…][μL/min/10^6 cells]×hepatocellularity[10^6 cells/g liver]×liver factor[g/kg body weight])/1000
Hepatic in vivo blood clearance (CL) was predicted according to the well-stirred liver model considering an average liver blood flow (QH) of 20.7 mL/min/kg: CL[mL/min/kg]=CL_[…]_IN VIVO[mL/min/kg]×hepatic blood flow[mL/min/kg]/(CL_[…]_IN VIVO[mL/min/kg]+hepatic blood flow[mL/min/kg])
Results were expressed as percentage of hepatic blood flow: QH[%]=CL[mL/min/kg]/hepatic blood flow[mL/min/kg])

pEC50, pIC50: −log10 of the molar value.

Chain of hERG channel (Q12809 whole entry): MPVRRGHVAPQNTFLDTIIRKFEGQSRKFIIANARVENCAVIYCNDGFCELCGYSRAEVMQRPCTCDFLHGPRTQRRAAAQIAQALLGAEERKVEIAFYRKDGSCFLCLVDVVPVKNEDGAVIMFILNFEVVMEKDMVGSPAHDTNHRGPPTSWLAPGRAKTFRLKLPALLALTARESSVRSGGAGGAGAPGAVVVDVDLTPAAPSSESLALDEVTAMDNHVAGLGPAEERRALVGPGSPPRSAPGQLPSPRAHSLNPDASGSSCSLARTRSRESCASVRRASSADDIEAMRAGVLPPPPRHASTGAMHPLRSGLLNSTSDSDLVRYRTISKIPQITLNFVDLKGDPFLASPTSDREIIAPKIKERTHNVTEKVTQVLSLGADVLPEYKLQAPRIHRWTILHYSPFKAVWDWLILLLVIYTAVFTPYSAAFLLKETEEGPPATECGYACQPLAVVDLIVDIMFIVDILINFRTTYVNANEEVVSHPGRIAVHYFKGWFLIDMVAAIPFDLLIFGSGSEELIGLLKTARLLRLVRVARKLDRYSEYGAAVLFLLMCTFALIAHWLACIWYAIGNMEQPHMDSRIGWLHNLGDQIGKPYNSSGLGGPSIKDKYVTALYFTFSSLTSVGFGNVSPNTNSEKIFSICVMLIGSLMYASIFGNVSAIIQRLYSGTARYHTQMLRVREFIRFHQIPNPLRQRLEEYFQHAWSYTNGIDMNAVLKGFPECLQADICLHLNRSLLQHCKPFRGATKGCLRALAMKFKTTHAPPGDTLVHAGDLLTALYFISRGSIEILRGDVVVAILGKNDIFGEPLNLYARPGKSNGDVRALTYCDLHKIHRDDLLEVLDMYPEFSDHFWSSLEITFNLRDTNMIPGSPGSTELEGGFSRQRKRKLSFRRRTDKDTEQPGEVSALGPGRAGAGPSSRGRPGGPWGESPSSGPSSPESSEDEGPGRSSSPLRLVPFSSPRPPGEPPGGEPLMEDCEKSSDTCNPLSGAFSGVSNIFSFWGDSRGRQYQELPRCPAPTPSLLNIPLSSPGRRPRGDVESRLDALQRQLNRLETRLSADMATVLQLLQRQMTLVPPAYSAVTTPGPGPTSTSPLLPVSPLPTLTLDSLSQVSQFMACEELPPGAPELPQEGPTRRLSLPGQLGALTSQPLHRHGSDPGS
Chain of human GPR52 (Q9Y2T5 whole entry): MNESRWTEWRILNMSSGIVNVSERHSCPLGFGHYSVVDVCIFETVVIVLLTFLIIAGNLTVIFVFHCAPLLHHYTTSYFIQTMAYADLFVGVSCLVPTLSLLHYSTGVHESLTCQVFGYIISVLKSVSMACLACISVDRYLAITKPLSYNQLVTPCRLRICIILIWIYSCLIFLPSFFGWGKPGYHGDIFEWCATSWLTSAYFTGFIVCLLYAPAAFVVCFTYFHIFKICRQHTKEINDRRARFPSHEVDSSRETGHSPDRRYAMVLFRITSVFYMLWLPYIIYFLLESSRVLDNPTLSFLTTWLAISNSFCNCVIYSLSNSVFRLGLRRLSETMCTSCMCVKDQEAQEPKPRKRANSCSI

`CC(=O)N1CC(NC(=O)c2nccnc2N2CC(Oc3ccc(F)c(Cl)c3)C2)C(F)(F)C1` (racemic) [Example 1]: the negative logarithm of the EC50 (pEC50) on human GPR52 is 7.82. Moreover, the pIC50 at hERG channel was < 5.00. For the same compound, the “Hu PPB” value with human plasma proteins turned out to be 92.6 % bound. Besides, the “Human HepStab” value in the series on human hepatocytes is recorded as 11.1 % QH.
The like results for `[2H]C([2H])([2H])C(=O)N1CC(NC(=O)c2nccnc2N2CC(Oc3ccc(F)c(F)c3)C2)C(F)(F)C1` (racemic) [Example 4] were, in that order, 7.74, < 5.00, 79.2 % bound and 8.5 % QH.
In the same order, the values of `CC(=O)N1CC(NC(=O)c2nccnc2N2CC(Oc3cc(F)cc(Cl)c3)C2)C(F)(F)C1` (racemic) [Example 5] are 7.57, < 5.00, 93.2 % bound and 17.0 % QH.
In the case of `CC(=O)N1CC(NC(=O)c2nccnc2N2CC(Oc3cc(F)cc(OC(F)F)c3)C2)C(F)(F)C1` (racemic) [Example 7], at human GPR52, the negative-log EC50 (pEC50) is 6.99. Besides, the “Human HepStab” value in the series with human hepatocytes is on record as 15.4 % QH.
As to `CS(=O)(=O)N1CC(NC(=O)c2nccnc2N2CC(Oc3cc(F)c(F)c(F)c3)C2)C(F)(F)C1` (racemic) [Example 9], the pEC50 on human GPR52 was 7.72. For the same compound, at hERG channel, the negative logarithm of the IC50 (pIC50) is < 5.00. Moreover, the “Hu PPB” value in the series with human plasma proteins was found to be 93.4 % bound. Besides, the “Human HepStab” value in the series on human hepatocytes is reported as 5.8 % QH.
On to `O=C(NC1CNCC1(F)F)c1nccnc1N1CC(Oc2cc(F)c(F)c(F)c2)C1` (racemic) [Intermediate H-3], for which, at human GPR52, the pEC50 is 6.42. For the same compound, in the series on human plasma proteins, the “Hu PPB” value was found to be 88.2 % bound. For the same compound, the “Human HepStab” value with human hepatocytes is 27.7 % QH.
Regarding `CC(=O)N1CC(F)C(NC(=O)c2nsnc2N2CC(Oc3ccc(F)c(F)c3)C2)C1` (single isomer, unassigned) [Example 14a], the negative logarithm of the EC50 (pEC50) on human GPR52 was 5.93.
For `CC(=O)N1CC(F)C(NC(=O)c2nsnc2N2CC(Oc3ccc(F)c(F)c3)C2)C1` (single isomer, unassigned) [Example 14b], at human GPR52, the pEC50 was 7.96. In addition, the pIC50 against hERG channel was < 5.00. The “Hu PPB” value in the series with human plasma proteins worked out at 89.7 % bound.
`CC(=O)N1CCC(NC(=O)c2nsnc2N2CC(Oc3ccc(F)c(F)c3)C2)C1` (single isomer, unassigned) [Example 16b]: the negative-log EC50 (pEC50) at human GPR52 was 6.68. The pIC50 at hERG channel is < 5.00.
With `CCC(=O)N1CC(NC(=O)c2nccnc2N2CC(Oc3ccc(F)c(F)c3)C2)C(F)(F)C1` (stereo not shown) [Example 2], the pEC50 on human GPR52 was 7.62. This compound also showed a negative-log IC50 (pIC50) against hERG channel of 5.18. Further, the “Hu PPB” value in the series on human plasma proteins turned out to be 89.9 % bound. Further, the “Human HepStab” value in the series with human hepatocytes was 21.3 % QH.
In the same order, the values of `CC(=O)N1CC(NC(=O)c2nccnc2N2CC(Oc3cc(F)cc(C(F)F)c3)C2)C(F)(F)C1` (stereo not shown) [Example 6] are 7.27, < 5.00, 87.8 % bound and 4.8 % QH.
With `CC(=O)N1C[C@@H](NC(=O)c2nccnc2N2CC(Oc3cc(F)cc(F)c3)C2)C(F)(F)C1` [Example 10b], the negative-log EC50 (pEC50) on human GPR52 was 5.88.
On to `CC(=O)N1CC2(NC(=O)c3nsnc3N3CC(Oc4cc(F)c(F)c(F)c4)C3)CC1C2` [Example 12], for which the negative-log EC50 (pEC50) on human GPR52 is 7.62. The negative-log IC50 (pIC50) on hERG channel was < 5.00. In the series with human plasma proteins, the “Hu PPB” value is 88.5 % bound. Besides, in the series with human hepatocytes, the “Human HepStab” value is given as 5.0 % QH.
As for `CC(=O)N1CC(F)C(NC(=O)c2nsnc2N2CC(Oc3ccc(F)c(F)c3)C2)C1` (stereo not shown) [Example 14b], the “Human HepStab” value in the series with human hepatocytes was <4.1 % QH.
Turning to `CC(=O)N1CC[C@H](NC(=O)c2nsnc2N2CC(Oc3cc(F)cc(F)c3)C2)C1` [Example 15b], the pEC50 at human GPR52 is 6.77.
As to `CC(=O)N1CCC(NC(=O)c2nsnc2N2CC(Oc3ccc(F)c(F)c3)C2)C1` (stereo not shown) [Example 16a], the pEC50 on human GPR52 was 7.96. Moreover, at hERG channel, the pIC50 is < 5.00. The “Hu PPB” value in the series with human plasma proteins was 86.2 % bound. Besides, the “Human HepStab” value in the series on human hepatocytes is listed as <4.1 % QH.

As a reminder, the pEC50 is the negative decadic logarithm of the EC50, by convention in mol/L. Broadly, the pIC50 is −log10 of the IC50, conventionally taken in molar units. A high value points to a small IC50.
